These results are taken from the supplement of paper PMC10307832.

What all share (experiment): relative viability (nuclei count vs DMSO), 5 days (fraction); higher = more cells survive
Compound in experiment [1]: C1CNCCC1C2=CC(=NN2)C3=CC=NC=C3 + Cc1nc(Nc2ncc(C(=O)Nc3c(C)cccc3Cl)s2)cc(N2CCN(CCO)CC2)n1 [Dasatinib] (partner 0.075 µM)
The procedure, abridged:
(§1)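 Medians of duplicate plates are given as relative viability. That measure is the nuclei count in treated wells divided by the count in vehicle wells. Counts were taken on 4× images of lung cancer cell lines in 1536-well plates, 5 days after pin-tool dosing the day after seeding with one drug alone or a fixed anchor-drug dose plus five library-drug doses (not always all listed) in √10 steps.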

Compound in experiment [2]: C[C@@H](N)c1ccc(C(=O)Nc2ccnc3[nH]ccc23)cc1 + Cc1cc(Nc2cc(N3CCN(C)CC3)nc(Sc3ccc(NC(=O)C4CC4)cc3)n2)n[nH]1 [Tozasertib] (partner 0.1 µM)
The method, boiled down:
as §1

Compound in experiment [3]: C[C@@H](N)c1ccc(C(=O)Nc2ccnc3[nH]ccc23)cc1 + O=C(CCCCCCC(=O)Nc1ccccc1)NO [Vorinostat] (partner 1 µM)
The method, boiled down: as §1

Compound in experiment [4]: C[C@@H](N)c1ccc(C(=O)Nc2ccnc3[nH]ccc23)cc1 + O=C(c1cc(Cc2n[nH]c(=O)c3ccccc23)ccc1F)N1CCN(C(=O)C2CC2)CC1 [Olaparib] (partner 8 µM)
The procedure, abridged: as §1

For UMC-11, the relative viability in experiment [1] (first compound 0.08 µM) was 0.498; in experiment [1] (first compound 0.8 µM), 0.543; in experiment [1] (first compound 2.53 µM) it was 0.488; in experiment [1] (first compound 8 µM) it was 0.521; in experiment [2] (first compound 0.04 µM), 0.215; in experiment [2] (first compound 0.1265 µM) it was 0.18. For the same cell line, the relative viability came to 0.205 in experiment [2] (first compound 0.4 µM); 0.198 in experiment [2] (first compound 4 µM); 0.459 in experiment [3] (first compound 0.04 µM); 0.514 in experiment [3] (first compound 0.1265 µM); 0.515 in experiment [3] (first compound 0.4 µM); 0.504 in experiment [3] (first compound 1.265 µM). Moreover, the relative viability in experiment [3] (first compound 4 µM) was 0.356; in experiment [4] (first compound 0.04 µM), 0.359; in experiment [4] (first compound 0.1265 µM) it was 0.427; in experiment [4] (first compound 0.4 µM), 0.357; in experiment [4] (first compound 1.265 µM), 0.303; in experiment [4] (first compound 4 µM) it was 0.285.
